Experimental data published in patent US12264173B2 (GILEAD SCIENCES, INC., priority 2020, dated 2025).
Like-named read-outs stand apart in the source and are kept apart here.

How the values were obtained:
Format in all cases: cell-based
HRV16 = HRV16 HeLa EC50 (cytopathic effect in H1-HeLa cells)
How it was run: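 Read-out is luminescent cell viability (CellTiter-Glo) after 96 h of infection at 33 °C, scaled between uninfected and infected-untreated wells. Before infection with titrated virus, compounds went onto H1-HeLa cells as triplicate 3-fold dilution series.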

[1] = system: Dengue 2, New Guinea strain (NGC); assay: DENV moDC EC50 (qPCR in human monocyte-derived dendritic cells); conditions: Table 3, human moDCs, 48 hours
Method: Human monocyte-derived dendritic cells (moDCs) were derived from CD14+ monocytes (AllCells) cultured in Human Mo-DC Differentiation medium containing GM-CSF and IL-4 (Miltenyi Biotec). On day 7, moDCs were harvested by mechanical disruption, washed and suspended in serum-free RPMI. moDCs were infected with Vero-derived Dengue 2, New Guinea strain (NGC) at a MOI=0.1 for two hours in serum-free RPMI with gentle agitation at 37° C. Cells were washed and resuspended in 10% serum-containing RPMI (Gibco, supplemented with sodium pyruvate, NEAA, Penicillin-Streptomycin). […] were plated in triplicate in 96-well plates with compounds dispensed at graded doses (Hewlett-Packard D300 Digital Dispenser). All wells were normalized to 0.25% DMSO. At 48 hours, cells were washed with 1×PBS and all supernatants removed. Total RNA was extracted using RNEasy 96 plates (Qiagen) and used to generate first-strand cDNA using XLT cDNA 5× Supermix (QuantaBio). cDNA was used as a template in a Taqman qPCR duplex reaction specific to DENV2 viral and GAPDH gene expression. EC50 values were determined using Prism Graphpad software, with normalization to a positive control and no compound negative control wells.

HCV Rep 1B = HCV Rep 1B EC50 (replicon luciferase)
Method: (§1) Compounds were serially diluted in ten steps of 1:3 dilutions in 384-well plates. All serial dilutions were performed in four replicates per compound within the same 384-well plate. […] To each well of a black polystyrene 384-well plate (Greiner Bio-one, Monroe, NC), 90 μL of cell culture medium (without Geneticin) containing 2000 suspended HCV replicon cells was added with a Biotek μFlow workstation. For compound transfer into cell culture plates, 0.4 μL of compound solution from the compound serial dilution plate was transferred to the cell culture plate on a Biomek FX workstation. The DMSO concentration in the final assay wells was 0.44%. The plates were incubated for 3 days at 37° C. with 5% CO2 and 85% humidity. The HCV replicon assay was a multiplex assay, able to assess both cytotoxicity and antireplicon activity from the same well. The CC50 assay was performed first. The media in the 384-well cell culture plate was aspirated, and the wells were washed four times with 100 μL of PBS each, using a Biotek ELX405 plate washer. A volume of 50 μL of a solution containing 400 nM calcein AM (Anaspec, Fremont, CA) in 1×PBS was added to each well of the plate with a Biotek μFlow workstation. The plate was incubated for 30 min at room temperature before the fluorescence signal (excitation 490 nm, emission 520 nm) was measured with a Perkin-Elmer Envision plate reader. The EC50 assay was performed in the same wells as the CC50 assay. The calcein-PBS solution in the 384-well cell culture plate was aspirated with a Biotek ELX405 plate washer. A volume of 20 μL of Dual-Glo luciferase buffer (Promega, Madison, WI) was added to each well of the plate with a Biotek μFlow Workstation. The plate was incubated for 10 min at room temperature. A volume of 20 μL of a solution containing a 1:100 mixture of Dual-Glo Stop & Glo substrate (Promega, Madison, WI) and Dual-Glo Stop & Glo buffer (Promega, Madison, WI) was added to each well of the plate with a Biotek μFlow Workstation. The plate was then incubated at room temperature for 10 min before the luminescence signal was measured with a Perkin-Elmer Envision Plate Reader.

HCV Rep 2A = HCV Rep 2A EC50 (replicon luciferase)
Method: as §1

[2] = system: hMPV strain CAN99-81 (gr. A1); assay: hMPV A1 EC50 in LLC-MK2 cells; conditions: read-out: hMPVA1 LLC-MK2 EC50
Method: (§2) LLC-MK2 cells were seeded in 24-well plates at 90% confluence in MEM+10% FBS. Plates were washed with PBS and 500 μL of hMPV (strains CAN99-81 (gr. A1), CAN97-83 (gr. A2), CAN97-82 (B1) or CAN98-75 (gr. B2), containing 40 PFU/mL with the different dilutions of the 4 compounds were added on the cells for 1 h 30 min at 37° C., 5% CO2. After the adsorption period, the medium was removed and cells were washed with PBS. An overlay of Opti-MEM 2×+methycellulose 1.6% (1:1) containing the same concentrations of compounds as in the adsorption period was added to the wells. A positive control consisting of ribavirin was also tested with concentrations ranging from 1 μM to 100 μM. The plates were incubated at 37° C., 5% CO2 for 3-5 days. After the incubation period, the cells were fixed with 7% formalin for 1 h at room temperature. hMPV titers were determined using a Mab specific for the F protein (clone hMPV24, ABD Serotec, Inc.) diluted 1/10 000 and a second anti-mouse IgG HRP antibody (GeneScriptCorp) diluted 1/2500. Finally, KPL True Blue was used to reveal infected cells.

[3] = system: hMPV strain CAN98-75 (gr. B2); assay: hMPV B2 EC50 in LLC-MK2 cells; conditions: read-out: hMPVB2 LLC-MK2 EC50
Method: as §2

[4] = system: hMPV strain CAN97-83 (gr. A2); assay: hMPV A2 EC50 in LLC-MK2 cells; conditions: read-out: hMPVA2 LLC-MK2 EC50
Method: as §2

[5] = system: hMPV strain CAN97-82 (B1); assay: hMPV B1 EC50 in LLC-MK2 cells; conditions: read-out: hMPVB1 LLC-MK2 EC50
Method: as §2

[6] = 96 h, Table 3, H1-HeLa cells, 96 h, read-out: HRV16 HeLa EC50
[7] = Hepatitis C virus, 72 h, Table 4, replicon cells, 3 days, read-out: HCV Rep 1B EC50
[8] = Hepatitis C virus, 72 h, Table 4, replicon cells, 3 days, read-out: HCV Rep 2A EC50
[9] = HeLa, read-out: HRV16 HeLa EC50, Table 5 comparative activity, 2',3'-OH vs -OC(O)iPr
[10] = Table 3, H1-HeLa cells, 96 h, read-out: HRV16 HeLa EC50
[11] = Table 4, replicon cells, 3 days, read-out: HCV Rep 1B EC50
[12] = Table 4, replicon cells, 3 days, read-out: HCV Rep 2A EC50

SMILES | EC50 (HRV16; [6]) [nM] | EC50 ([1]; Dengue virus, Dendritic cell) [nM] | EC50 (HCV Rep 1B; [7]) [nM] | EC50 (HCV Rep 2A; [8]) [nM] | EC50 (HRV16; [10]) [nM] | also measured
CCC(CC)COC(=O)[C@H](C)N[P@](=O)(OC[C@@]1(C#N)O[C@@H](c2ccc3c(N)ncnn23)C(OC(=O)C(C)C)[C@@H]1OC(=O)C(C)C)Oc1ccccc1 (stereo in doubt) [Example 86, (2R,3S,4R,5S)-5-(4-aminopyrrolo[2,1-f][1,2,4]triazin-7-yl)-2-cyano-2-((((S)-(((S)-1-(2-ethylbutoxy)-1-oxopropan-2-yl)amino)(phenoxy)phosphoryl)oxy)methyl) tetrahydrofuran-3,4-diyl bis(2-methylpropanoate)] | 192 | 239 | 929 | 1480 | – | –
CCC(=O)O[C@H]1[C@H](c2ccc3c(N)ncnn23)O[C@](C#N)(CO[P@@](=O)(N[C@@H](C)C(=O)OC2CCCCC2)Oc2ccccc2)[C@H]1OC(=O)CC [Example 82, (2R,3S,4S,5S)-5-(4-aminopyrrolo[2,1-f][1,2,4]triazin-7-yl)-2-cyano-2-((((S)-(((S)-1-(cyclohexyloxy)-1-oxopropan-2-yl)amino)(phenoxy)phosphoryl)oxy)methyl) tetrahydrofuran-3,4-diyl dipropionate] | 201 | 786 | 359 | 813 | – | –
CCOC(=O)[C@H](C)N[P@](=O)(OC[C@@]1(C#N)O[C@@H](c2ccc3c(N)ncnn23)[C@H](OC(=O)C(C)C)[C@@H]1OC(=O)C(C)C)Oc1ccccc1 (single isomer, unassigned) [Example 144] | 93 | 31 | 442 | 1270 | – | EC50 (HRV16; [9]): 92 nM
CCC(=O)O[C@H]1[C@H](c2ccc3c(N)ncnn23)O[C@](C#N)(CO[P@@](=O)(N[C@@H](C)C(=O)OC(C)C)Oc2ccccc2)[C@H]1OC(=O)CC [Example 90, (2R,3S,4S,5S)-5-(4-Aminopyrrolo[2,1-f][1,2,4]triazin-7-yl)-2-cyano-2-((((S)-(((S)-1-isopropoxy-1-oxopropan-2-yl)amino)(phenoxy)phosphoryl)oxy)methyl) tetrahydrofuran-3,4-diyl dipropionate] | 259 | 677 | 579 | 1140 | – | –
CC(C)C(=O)O[C@H]1[C@H](c2ccc3c(N)ncnn23)O[C@](C#N)(COP(=O)(N[C@@H](C)C(=O)OC2COC2)Oc2ccccc2)[C@H]1OC(=O)C(C)C (single isomer, unassigned) [Example 186] | – | – | – | – | 44 | EC50 (HCV Rep 1B; [11]): 306 nM; EC50 (HCV Rep 2A; [12]): 836 nM
CC(C)C(=O)O[C@H]1[C@H](c2ccc3c(N)ncnn23)O[C@](C#N)(CO[P@@](=O)(N[C@@H](C)C(=O)OC2CCCCC2)Oc2ccccc2)[C@H]1OC(=O)C(C)C [Example 77, (2R,3S,4S,5S)-5-(4-aminopyrrolo[2,1-f][1,2,4]triazin-7-yl)-2-cyano-2-((((S)-(((S)-1-(cyclohexyloxy)-1-oxopropan-2-yl)amino)(phenoxy)phosphoryl)oxy)methyl) tetrahydrofuran-3,4-diyl bis(2-methylpropanoate)] | 152 | 185 | 608 | 936 | – | –
CCC(=O)O[C@H]1[C@H](c2ccc3c(N)ncnn23)O[C@](C#N)(CO[P@@](=O)(N[C@@H](C)C(=O)OC)Oc2ccccc2)[C@H]1OC(=O)CC (single isomer, unassigned) [Example 143] | 221 | 164 | – | – | – | –
COC(=O)[C@H](C)N[P@](=O)(OC[C@@]1(C#N)O[C@@H](c2ccc3c(N)ncnn23)[C@H](OC(=O)C(C)C)[C@@H]1OC(=O)C(C)C)Oc1ccccc1 (single isomer, unassigned) [Example 140] | 83 | 90 | 369 | 542 | – | EC50 (HRV16; [9]): 83 nM; EC50 (HCV Rep 1B; Hepatitis C virus, read-out: HCV Rep1B EC50): 368 nM; EC50 (HCV Rep 2A; Hepatitis C virus, read-out: HCV Rep2A EC50): 542 nM; EC50 [2]: 160 nM; EC50 [3]: 230 nM; EC50 [4]: 190 nM; EC50 [5]: 210 nM
CC(C)C(=O)O[C@H]1[C@H](c2ccc3c(N)ncnn23)O[C@](C#N)(COP(=O)(N[C@@H](C)C(=O)OCC2CCOCC2)Oc2ccccc2)[C@H]1OC(=O)C(C)C (single isomer, unassigned) [Example 183] | – | – | – | – | 88 | EC50 [1]: 142 nM
COC(=O)[C@H](C)N[P@](=O)(OC[C@@]1(C#N)O[C@@H](c2ccc3c(=N)n(COP(=O)(O)O)cnn23)[C@H](OC(=O)C(C)C)[C@@H]1OC(=O)C(C)C)Oc1ccccc1 [Example 259, (2R,3S,4S,5S)-2-cyano-5-(4-imino-3-((phosphonooxy)methyl)-3,4-dihydropyrrolo[2,1-f][1,2,4]triazin-7-yl)-2-((((S)-(((S)-1-methoxy-1-oxopropan-2-yl)amino)(phenoxy)phosphoryl)oxy)methyl)tetrahydrofuran-3,4-diyl bis(2-methylpropanoate)] | – | – | 1120 | 2080 | – | –
CC(C)C(=O)O[C@H]1[C@H](c2ccc3c(N)ncnn23)O[C@](C#N)(COP(=O)(N[C@@H](C)C(=O)OCC2COC2)Oc2ccccc2)[C@H]1OC(=O)C(C)C (single isomer, unassigned) [Example 201] | – | – | – | – | 177 | EC50 [1]: 57 nM
CCC(=O)O[C@H]1[C@H](c2ccc3c(N)ncnn23)O[C@](C#N)(CO[P@@](=O)(N[C@@H](C)C(=O)OCC2CC2)Oc2ccccc2)[C@H]1OC(=O)CC [Example 99] | – | – | – | – | 116 | EC50 (HCV Rep 1B; [11]): 313 nM; EC50 (HCV Rep 2A; [12]): 599 nM
